The values below come from patent US20250282802A1, “P[…] AND METHODS” (priority 2020, published 2025).

One assay concerns T98G (glioblastoma). In words: Cytotoxicity profiling (Alamar Blue), T98G. It counts as cell-based, human. The protocol: (§1) FIG. 8. Cytotoxicity of pantaphos across various cancer cell lines. Assays were conducted as described (mBio. 2021 Feb. 2; 12(1):e03402-20), using the Alamar Blue method with 72-hour treatment using Raptinal ([…]) as Dead cell control; n=3. Cell seeding densities: CT26 (colon carcinoma) 2000 c/w; HOS (osteosarcoma) 2500 c/w; ES-2 (ovarian carcinoma), HCT-116 (colorectal carcinoma), A-549 (lung carcinoma), A-172 (glioblastoma), D54 (glioblastoma), U87 (glioblastoma), T98G (glioblastoma), SK-ML-28 (melanoma), MCF-7 (breast cancer), AM38 (glioblastoma) and MDA-MB-231 (breast cancer) 3000 c/w; U118MG (malignant glioma) 4000 c/w; HepG2 (liver cancer) 8000 c/w. c/w=cells per well. […]
(§2) Cell culture cytotoxicity screening. The compounds were evaluated for their ability to kill cancer cell lines in culture, using HOS (osteosarcoma); ES-2 (ovarian cancer); HCT 116 (colon cancer); A549 (lung carcinoma); and A172 (glioma) cells. Human skin fibroblast cells (HFF-1) were also assessed. […] 72 hours post-treatment, cell viability was assessed using the Alamar Blue method (http://www.bio-rad-antibodies.com/measuring-cytotoxicity-proliferation-spectrophotometry-fluorescence-alamarBlue.html). […] Conversion of Alamar Blue was measured with a plate reader (SpectraMax M3; Molecular Devices) by fluorescence (excitation wavelength: 555 nm; emission wavelength: 585 nm; cutoff 570 nm; autogain). […]

The test system of the next assay is Salmonella enterica LT2. Description: Antibacterial bioassay (MIC), Salmonella enterica. It counts as cell-based. The conditions noted are these: CLSI. The protocol:
Antibacterial bioassays. Susceptibility testing for the ESKAPE pathogens and Salmonella enterica LT2 was performed using a Kirby-Bauer method as outlined by the Clinical and Laboratory Standards Institute (CLSI). For rich media bioassays, Mueller Hinton Broth 2 (MH-2, Sigma-Aldrich, 90922) was used for all strains except 1% BHI was supplemented for Enterococcus faecalis ATCC 19433. For minimal media bioassays, glucose-MOPS minimal medium was used. Briefly, overnight bacterial cultures were sub-cultured and inoculated into 5 mL top agar (0.7% agar) for final concentration of 5×10^5 CFU/mL. Then, 20 μL of a compound 2-fold dilution series (200, 100, 50, 25, 12.5, 6.25 μM in water) was spotted on 6 mm diameter blank paper discs (BD BBL™ 231039). Control discs received 20 μL of 50 mg/mL kanamycin. Plates were incubated at 35° C. for 20-24 hours. […] Sensitivity of the IPTG-inducible phosphonate uptake strain WM6242 to pantaphos was tested using a disk diffusion assay. Plates containing growth medium were overlayed with 5 mL of top agar (0.7% agar) inoculated with 100 μL (OD600=0.8) of the phosphonate-specific E. coli indicator strain (WM6242) with or without addition of 1 mM IPTG. WM6242 is engineered with an IPTG-inducible, non-specific phosphonate uptake system (phnCDE). […]

For another assay, the system named is onion bulbs. In words: Onion bioactivity assay (center rot). The conditions noted are these: 30° C. Format: in vivo, Allium cepa (onion). The protocol: Onion bioactivity assays. Yellow onions purchased from a local market were surface sterilized in a laminar flow biosafety hood as follows. First, the outermost layers with any damage or browning were removed and discarded, followed by soaking for 10 minutes in 10% bleach. The onions were then rinsed three times with sterile dH2O, followed by soaking in 70% EtOH for an additional 10 minutes, then rinsed four times with sterile dH2O. The onions were left in a biosafety laminar flow hood until water and ethanol were completely evaporated. For testing virulence of microbial strains, the onions were inoculated by stabbing with a previously sterilized wooden toothpick dipped into a bacterial cell suspension (1×10^3 CFU/mL in 1×PBS buffer). Chemical complementation studies were performed by addition of 100 μL of filter-sterilized sample into the hole created by the toothpick during inoculation. For testing bioactivity of crude and purified chemical samples in the absence of bacteria, holes were punched in sterilized onions using sterile toothpicks followed by addition of 100 μL of a filter-sterilized sample. Following inoculation and/or treatment with filter-sterilized compounds, the onions were placed in zip-lock plastic bags and incubated at 30° C. in the dark for the indicated number of days. […]

The subject of assay [1] is A-172 (human glioma cancer). Description: Cell culture cytotoxicity screening (Alamar Blue), A-172. It counts as cell-based. The protocol: FIG. 8. Cytotoxicity of pantaphos across various cancer cell lines. Assays were conducted as described (mBio. 2021 Feb. 2; 12(1):e03402-20), using the Alamar Blue method with 72-hour treatment using Raptinal ([…]) as Dead cell control; n=3. Cell seeding densities: CT26 (colon carcinoma) 2000 c/w; HOS (osteosarcoma) 2500 c/w; ES-2 (ovarian carcinoma), HCT-116 (colorectal carcinoma), A-549 (lung carcinoma), A-172 (glioblastoma), D54 (glioblastoma), U87 (glioblastoma), T98G (glioblastoma), SK-ML-28 (melanoma), MCF-7 (breast cancer), AM38 (glioblastoma) and MDA-MB-231 (breast cancer) 3000 c/w; U118MG (malignant glioma) 4000 c/w; HepG2 (liver cancer) 8000 c/w. c/w=cells per well. IC50 and Emax values shown in Table 6 were extracted from the raw data plotted in FIG. 8.
Cell culture cytotoxicity screening. The compounds were evaluated for their ability to kill cancer cell lines in culture, using HOS (osteosarcoma); ES-2 (ovarian cancer); HCT 116 (colon cancer); A549 (lung carcinoma); and A172 (glioma) cells. Human skin fibroblast cells (HFF-1) were also assessed. Cells were seeded (3000 cells well^−1 for ES-2, HCT 116, A549 and A172; 4000 cells well^−1 for HFF-1 and 2500 cells well^−1 for HOS) in a 96-well plate and allowed to attach overnight. Cells were treated with pantaphos in water. The concentrations of the tested compounds were 5 nM to 100 μM (1% water final; 100 μl well^−1). Raptinal (50 μM) was used as a dead control. On each plate, five technical replicates per compound were performed. 72 hours post-treatment, cell viability was assessed using the Alamar Blue method (http://www.bio-rad-antibodies.com/measuring-cytotoxicity-proliferation-spectrophotometry-fluorescence-alamarBlue.html). Alamar Blue solution (10 μl of 440 μM resazurin in sterile 1×PBS) was added to each well, and the plate was incubated for 3-4 hrs. Conversion of Alamar Blue was measured with a plate reader (SpectraMax M3; Molecular Devices) by fluorescence (excitation wavelength: 555 nm; emission wavelength: 585 nm; cutoff 570 nm; autogain). Percentage death was determined by normalizing to water-treated cells and Raptinal-treated cells. For IC50 determination, the data were plotted as compound concentration versus dead cell percentage and fitted to a logistic-dose-response curve using OriginPro 2019 (OriginLab). The data were generated in triplicate, and IC50 values are reported as the average of three separate experiments along with SEM values.

The next assay concerns D54 (glioblastoma). In words: Cytotoxicity profiling (Alamar Blue), D54. Format: cell-based. The conditions noted are these: Homo sapiens, 72-hour treatment. The protocol: as §1, §2
In assay [2] the test system is A-549 (human lung carcinoma). Description: Cell culture cytotoxicity screening (Alamar Blue), A-549. Format: cell-based. The conditions noted are these: A549, A-549, Alamar Blue, 72 hours. The protocol: as §1, §2

Read-outs that look alike come from different tables or passages of the source.

Consider `O=C(O)/C=C(\C(=O)O)C(O)P(=O)(O)O` (stereo not shown) [pantaphos, 2-(hydroxy(phosphono)methyl)maleate], for which the IC50 was above 100000 nM in the assay on T98G (glioblastoma) (Homo sapiens, T98G, Alamar Blue, 72-hour treatment (Table 6)); 1010 ± 60 nM in assay [1] (A 172, 72 h, A-172, Alamar Blue, 72-hour treatment (Table 6)); 1000 nM in assay [1] (A 172, 72 h, A-172, Alamar Blue, 72 hours); 1000 nM in assay [1] (A 172, A-172 (text of Example 5)); 14700 ± 610 nM in assay [2]. Moreover, in the assay with T98G (glioblastoma) (glioblastoma cell line printed as TG98), the “sensitivity of the cell line to pantaphos, in words” value was “resistant”. In addition, the MIC was above 200 µM in the assay with Salmonella enterica LT2 (Mueller-Hinton 2 medium, read-out: MIC, Rich medium) and above 200 µM in the assay on Salmonella enterica LT2 (glucose-MOPS minimal medium, read-out: MIC, Minimal medium). In addition, the “onion center rot on co-inoculation with the P. ananatis hvr deletion mutant (chemical complementation)” value with onion bulbs (co-inoculated with hvr mutant) is “resulted in onion rot”. Also, the “onion rot lesions after injection in the absence of bacteria” value with onion bulbs (surface sterilized onion bulbs, 100 μL filter-sterilized sample, no bacteria) is “severe onion rot lesions”. Besides, the maximal response (Emax) in assay [1] (A-172, Alamar Blue, 72 hours, read-out: Emax = percentage cell death (converted)) was 99%; in the assay with D54 (glioblastoma), 46 to 58%; in assay [2] (read-out: Emax = percentage cell death (converted)), 66%.
